# Source: publication PMC5613772 (Biochemistry and Biophysics Reports, 2016)
# Columns and labels:
# [1] = molecular target: L. donovani Gcs full length (GcsF, LdGcs, Gcs) (Leishmania donovani, UniProt Q67BG3, R498A); experiment: biochemical
# [2] = molecular target: L. donovani Gcs full length (GcsF, LdGcs, Gcs) (Leishmania donovani, UniProt Q67BG3, E55A); experiment: biochemical
# [3] = molecular target: L. donovani Gcs full length (GcsF, LdGcs, Gcs) (Leishmania donovani, UniProt Q67BG3, E99A); experiment: biochemical
# GcsC = GcsC (Leishmania donovani, UniProt Q67BG3); details: value said to be in Table 2 but not printed there
# [4] = molecular target: T1, L. donovani Gcs full length (GcsF, LdGcs, Gcs) (Leishmania donovani, UniProt Q67BG3); experiment: tryptophan fluorescence quenching; assay type: binding
# T1 sequence (Q67BG3 1-687): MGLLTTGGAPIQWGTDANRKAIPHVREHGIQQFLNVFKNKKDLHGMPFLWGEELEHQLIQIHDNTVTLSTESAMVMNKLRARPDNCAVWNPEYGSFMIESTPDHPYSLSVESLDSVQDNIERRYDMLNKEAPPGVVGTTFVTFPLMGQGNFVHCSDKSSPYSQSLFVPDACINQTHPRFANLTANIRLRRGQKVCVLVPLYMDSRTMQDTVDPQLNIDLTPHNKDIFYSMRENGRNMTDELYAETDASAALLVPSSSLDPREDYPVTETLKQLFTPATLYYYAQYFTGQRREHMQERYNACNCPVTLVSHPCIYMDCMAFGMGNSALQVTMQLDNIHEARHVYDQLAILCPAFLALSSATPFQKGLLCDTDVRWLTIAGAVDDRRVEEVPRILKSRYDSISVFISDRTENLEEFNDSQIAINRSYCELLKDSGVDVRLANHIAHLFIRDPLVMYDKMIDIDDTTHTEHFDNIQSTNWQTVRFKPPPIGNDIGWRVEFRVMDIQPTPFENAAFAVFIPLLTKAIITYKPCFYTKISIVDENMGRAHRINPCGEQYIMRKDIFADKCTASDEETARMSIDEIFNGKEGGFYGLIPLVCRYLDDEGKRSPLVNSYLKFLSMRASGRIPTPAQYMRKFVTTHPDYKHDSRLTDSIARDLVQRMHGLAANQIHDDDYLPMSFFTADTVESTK
# [5] = molecular target: L. donovani Gcs full length (GcsF, LdGcs, Gcs) (Leishmania donovani, UniProt Q67BG3, E92A); experiment: biochemical
Compound,Kd [1] [µM],Kd [2] [µM],Kd [3] [µM],ITC or tryptophan fluorescence quenching (not told) (GcsC),Kd [4] [µM],Kd [5] [µM]
Nc1ncnc2c1ncn2[C@@H]1O[C@H](COP(=O)(O)OP(=O)(O)OP(=O)(O)O)[C@@H](O)[C@H]1O [ATP],1550 ± 238,2.5 ± 1,5.8 ± 0.3,GcsT and C-terminal constructs also show comparable binding with ATP,2.7 ± 0.3,3235 ± 0.937
N[C@@H](CS)C(=O)O [L-Cysteine],–,95 ± 2.1,–,–,177 ± 2.6,115 ± 0.35
N[C@@H](CCC(=O)O)C(=O)O [L-Glutamate],890 ± 0.167,793 ± 0.182,666 ± 0.3,–,93.7 ± 1.8,107 ± 0.16
